According to patent US8268827B2, “Pyridazinone derivatives as PARP inhibitors” (Istituto di Ricerche di Biologia Molecolare P. Angeletti …, priority 2007, dated 2012):
Structures can show the parent of a compound that is named as a salt.

Tests used:
[1] = tested on: BRCA-1 silenced HeLa cells (HeLa shBRCA1-GFP); assay: Proliferation assay in BRCA-1 silenced HeLa cells; format: cell-based; conditions: Homo sapiens; BRCA1 silenced HeLa cells, 168 hours; read-out: CC50 in the BRCA1 silenced HeLa cells
How it was run: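 HeLa cells with lentiviral shRNA BRCA1 knockdown (>80%), compared with control-vector HeLa, seeded at 300 cells/well. Compound exposure lasted 168 h at 37° C. Viability was read as resazurin-to-resorufin fluorescence (ex 550/em 590 nm).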

[2] = target: T1, PARP-1 (Homo sapiens, UniProt P09874); assay: PARP-1 SPA assay; format: biochemical
T1 construct: purchased Trevigen 4668-500-01
T1 sequence (P09874 whole entry): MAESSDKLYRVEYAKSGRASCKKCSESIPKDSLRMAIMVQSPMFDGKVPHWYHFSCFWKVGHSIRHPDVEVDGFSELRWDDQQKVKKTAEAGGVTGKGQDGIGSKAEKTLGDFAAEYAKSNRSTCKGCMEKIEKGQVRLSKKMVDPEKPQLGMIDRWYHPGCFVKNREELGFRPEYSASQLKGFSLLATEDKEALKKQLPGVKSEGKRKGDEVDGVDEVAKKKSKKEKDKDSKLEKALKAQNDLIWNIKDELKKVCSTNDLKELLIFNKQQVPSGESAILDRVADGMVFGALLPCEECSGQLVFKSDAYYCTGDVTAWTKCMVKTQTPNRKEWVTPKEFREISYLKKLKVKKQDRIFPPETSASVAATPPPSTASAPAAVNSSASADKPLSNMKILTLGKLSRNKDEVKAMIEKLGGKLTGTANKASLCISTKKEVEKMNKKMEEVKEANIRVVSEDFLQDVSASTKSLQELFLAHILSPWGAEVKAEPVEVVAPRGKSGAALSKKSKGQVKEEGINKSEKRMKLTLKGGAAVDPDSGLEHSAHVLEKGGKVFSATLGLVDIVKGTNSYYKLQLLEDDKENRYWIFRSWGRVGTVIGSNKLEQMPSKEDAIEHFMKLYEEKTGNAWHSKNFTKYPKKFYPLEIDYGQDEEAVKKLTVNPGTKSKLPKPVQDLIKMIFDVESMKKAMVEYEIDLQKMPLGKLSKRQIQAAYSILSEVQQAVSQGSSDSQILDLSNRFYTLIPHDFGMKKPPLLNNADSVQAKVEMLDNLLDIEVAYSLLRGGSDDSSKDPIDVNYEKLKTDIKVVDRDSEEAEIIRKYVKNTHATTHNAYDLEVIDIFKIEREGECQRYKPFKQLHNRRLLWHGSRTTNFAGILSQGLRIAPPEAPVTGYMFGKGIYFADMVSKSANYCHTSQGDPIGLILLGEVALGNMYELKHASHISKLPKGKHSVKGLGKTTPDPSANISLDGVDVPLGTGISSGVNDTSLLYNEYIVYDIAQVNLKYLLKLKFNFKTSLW
Protocol: Assay buffer: 100 mM Tris pH 8, 4 mM MgCl2, 4 mM Spermine, 200 mM KCl, 0.04% Nonidet P-40.
Nicotinamide-adenine dinucleotide (NAD)/DNA Mix: [^3H-NAD] (250 uCi/ml, 0.4 ul, Perkin-Elmer NET-443H), NAD (1.5 mM, 0.05 ul, SIGMA N-1511), Biotinylated-NAD (250 uM, 0.03 ul, Trevigen 4670-500-01), Activated calf thymus (1 mg/ml, 0.05 ul, Amersham Biosciences 27-4575), H2O (to 10 ul).
Developing Mix: Streptavidin SPA beads (5 mg/ml, Amersham Biosciences RPNQ 0007) dissolved in 500 mM EDTA.
The reaction is performed in 96-well microplate with a final volume of 50 uL/well. Add 5 ul 5% DMSO/compound solution, add enzyme mix (35 ul), start the reaction by adding NAD/DNA mix (10 uL) and incubate for 2 hrs at RT. Stop the reaction by adding developing mix (25 ul) and incubate 15 min at RT. Measure using a Packard TOP COUNT instrument.

Structure (SMILES)	CC50 [1]	IC50 [2]
Cc1c(Cc2ccc(F)c(C(=O)N3CCN(C4CC(F)(F)C4)C(=O)C3)c2)n[nH]c(=O)c1C [Example 55, 6-(3-{[4-(3,3-Difluorocyclobutyl)-3-oxopiperazin-1-yl]carbonyl}-4-fluorobenzyl)-4,5-dimethyl-3-oxo-2,3-dihydropyridazin-1-ium trifluoroacetate]	0.05 to 0.5 µM	0.005 to 0.025 µM
Cc1c(Cc2ccc(F)c(C(=O)N3CCN(C(C)c4nc(C(C)C)no4)C(=O)C3)c2)n[nH]c(=O)c1C (stereo not drawn) [Example 54, 6-[4-Fluoro-3-({4-[1-(3-isopropyl-1,2,4-oxadiazol-5-yl)ethyl]-3-oxopiperazin-1-yl}carbonyl)benzyl]-4,5-dimethyl-3-oxo-2,3-dihydropyridazin-1-ium trifluoroacetate]	0.05 to 0.5 µM	< 0.005 µM
Cc1c(Cc2ccc(F)c(C(=O)N3CCN(CCc4cccc(F)c4)C(=O)C3)c2)n[nH]c(=O)c1C [Example 59, 6-[4-Fluoro-3-({4-[2-(3-fluorophenyl)ethyl]-3-oxopiperazin-1-yl}carbonyl)benzyl]-4,5-dimethyl-3-oxo-2,3-dihydropyridazin-1-ium trifluoroacetate]	0.05 to 0.5 µM	< 0.005 µM
Cc1c(Cc2ccc(F)c(C(=O)N3CCN(C4CCC(C)(C)CC4)C(=O)C3)c2)n[nH]c(=O)c1C [Example 50, 6-(3-{[4-(4,4-Dimethylcyclohexyl)-3-oxopiperazin-1-yl]carbonyl}-4-fluorobenzyl)-4,5-dimethyl-3-oxo-2,3-dihydropyridazin-1-ium trifluoroacetate]	< 0.05 µM	0.005 to 0.025 µM
Cc1c(Cc2ccc(F)c(C(=O)N3CC(=O)N(C4CCCCC4)CC3(C)C)c2)n[nH]c(=O)c1C [Example 93, 3-{3-[(4-Cyclohexyl-2,2-dimethyl-5-oxopiperazin-1-yl)carbonyl]-4-fluorobenzyl}-4,5-dimethyl-6-oxo-1,6-dihydropyridazin-1-ium trifluoroacetate]		0.025 to 0.15 µM
CCN1CCN(C(=O)c2cc(Cc3n[nH]c(=O)c(C(F)(F)F)c3C)ccc2F)CC1=O [Example 143, 6-{3-[(4-Ethyl-3-oxopiperazin-1-yl)carbonyl]-4-fluorobenzyl}-5-methyl-4-(trifluoromethyl)pyridazin-3(2H)-one]		0.005 to 0.025 µM
Cc1c(Cc2ccc(F)c(C(=O)N3CCN(C)C(=O)C3)c2)n[nH]c(=O)c1C [Example 7, 3-{4-Fluoro-3-[(4-methyl-3-oxopiperazin-1-yl)carbonyl]benzyl}-4,5-dimethyl-6-oxo-1,6-dihydropyridazin-1-ium trifluoroacetate]		0.005 to 0.025 µM
Cc1c(Cc2ccc(F)c(C(=O)N3CCCN(C4CC4)C(=O)C3)c2)n[nH]c(=O)c1C [Example 82, 1-Cyclopropyl-4-{5-[(4,5-dimethyl-6-oxo-1,6-dihydropyridazin-3-yl)methyl]-2-fluorobenzoyl}-1,4-diazepan-2-one]		0.025 to 0.15 µM
Cc1c(Cc2ccc(F)c(C(=O)N3CCN(C4CCCCC4)C(=O)C3(C)C)c2)n[nH]c(=O)c1C [Example 37, 3-{3-[(4-Cyclohexyl-2,2-dimethyl-3-oxopiperazin-1-yl)carbonyl]-4-fluorobenzyl}-4,5-dimethyl-6-oxo-1,6-dihydropyridazin-1-ium trifluoroacetate]		0.025 to 0.15 µM
Cc1c(Cc2ccc(F)c(C(=O)N3CCN([C@H]4CC[C@H](F)C4)C(=O)C3)c2)n[nH]c(=O)c1C (relative stereo) [Example 212, 6-[4-Fluoro-3-({4-[(trans)-3-fluorocyclopentyl]-3-oxopiperazin-1-yl}carbonyl)benzyl]-4,5-dimethylpyridazin-3(2H)-one]		0.005 to 0.025 µM
COC(=O)CN1CCN(C(=O)c2cc(Cc3n[nH]c(=O)c(C)c3C)ccc2F)CC1=O [Example 24, Methyl (4-{5-[(4,5-dimethyl-6-oxo-1,6-dihydropyridazin-3-yl)methyl]-2-fluorobenzoyl}-2-oxopiperazin-1-yl)acetate trifluoroacetate]		0.005 to 0.025 µM
Cc1c(Cc2ccc(F)c(C(=O)N3CCCN(C4CCCCC4)C(=O)C3)c2)n[nH]c(=O)c1C [Example 34, 6-{3-[(4-Cyclohexyl-3-oxo-1,4-diazepan-1-yl)carbonyl]-4-fluorobenzyl}-4,5-dimethyl-3-oxo-2,3-dihydropyridazin-1-ium trifluoroacetate]		0.005 to 0.025 µM
COCC(C)N1CCN(C(=O)c2cc(Cc3n[nH]c(=O)c(C)c3C)ccc2F)CC1=O (stereo not drawn) [Example 162, 6-(4-Fluoro-3-{[4-(2-methoxy-1-methylethyl)-3-oxopiperazin-1-yl]carbonyl}benzyl)-4,5-dimethylpyridazin-3(2H)-one]	< 0.05 µM	
Cc1c(Cc2ccc(F)c(C(=O)N3CCN(CCF)C(=O)C3)c2)n[nH]c(=O)c1C [Example 58, 6-(4-Fluoro-3-{[4-(2-fluoroethyl)-3-oxopiperazin-1-yl]carbonyl}benzyl)-4,5-dimethyl-3-oxo-2,3-dihydropyridazin-1-ium trifluoroacetate]		0.005 to 0.025 µM
Cc1c(Cc2ccc(F)c(C(=O)N3CC(=O)N(c4ccc(C#N)c(F)c4)[C@H](C)C3)c2)n[nH]c(=O)c1C [Example 191, 4-((2R)-4-{5-[(4,5-Dimethyl-6-oxo-1,6-dihydropyridazin-3-yl)methyl]-2-fluorobenzoyl}-2-methyl-6-oxopiperazin-1-yl)-2-fluorobenzonitrile]	< 0.05 µM	
Cc1c(Cc2ccc(F)c(C(=O)N3CCN(C4CCCC4)C(=O)C3)c2)n[nH]c(=O)c1C [Example 3, 6-{3-[(4-Cyclopentyl-3-oxopiperazin-1-yl)carbonyl]-4-fluorobenzyl}-4,5-dimethylpyridazin-3(2H)-one]	< 0.05 µM	
Cc1c(Cc2ccc(F)c(C(=O)N3CCN([C@@H]4C[C@H]5CC[C@@H]4C5)C(=O)C3)c2)n[nH]c(=O)c1C [Example 101, 6-[3-({4-[(1R,2R,4S)-Bicyclo[2.2.1]hept-2-yl]-3-oxopiperazin-1-yl}carbonyl)-4-fluorobenzyl]-4,5-dimethyl-3-oxo-2,3-dihydropyridazin-1-ium trifluoroacetate]	< 0.05 µM	
Cc1c(Cc2ccc(F)c(C(=O)N3CCN(C(c4ccccc4)C(F)F)C(=O)C3)c2)n[nH]c(=O)c1C (stereo not drawn) [Example 46, 6-(3-{[4-(2,2-Difluoro-1-phenylethyl)-3-oxopiperazin-1-yl]carbonyl}-4-fluorobenzyl)-4,5-dimethyl-3-oxo-2,3-dihydropyridazin-1-ium trifluoroacetate]	< 0.05 µM	
Cc1c(Cc2ccc(F)c(C(=O)N3CC(=O)N(c4cc(F)cc(Cl)c4)[C@H](C)C3)c2)n[nH]c(=O)c1C [Example 198, 6-(3-{[(3R)-4-(3-Chloro-5-fluorophenyl)-3-methyl-5-oxopiperazin-1-yl]carbonyl}-4-fluorobenzyl)-4,5-dimethylpyridazin-3(2H)-one]	< 0.05 µM	
Cc1cc(C)cc(CN2CCN(C(=O)c3cc(Cc4n[nH]c(=O)c(C)c4C)ccc3F)CC2=O)c1 [Example 19, 6-(3-{[4-(3,5-Dimethylbenzyl)-3-oxopiperazin-1-yl]carbonyl}-4-fluorobenzyl)-4,5-dimethylpyridazin-3(2H)-one trifluoroacetate]	0.05 to 0.5 µM	
Cc1c(Cc2ccc(F)c(C(=O)N3CC(=O)N(c4cccs4)[C@H](C)C3)c2)n[nH]c(=O)c1C [Example 195, 6-(4-Fluoro-3-{[(3R)-3-methyl-5-oxo-4-(2-thienyl)piperazin-1-yl]carbonyl}benzyl)-4,5-dimethylpyridazin-3(2H)-one]	< 0.05 µM	
Cc1c(Cc2ccc(F)c(C(=O)N3C[C@@H]4C[C@H]3C(=O)N4c3ccccc3)c2)n[nH]c(=O)c1C [Example 41, (1S,4S)-5-{5-[(4,5-Dimethyl-6-oxo-1,6-dihydropyridazin-3-yl)methyl]-2-fluorobenzoyl}-2-phenyl-2,5-diazabicyclo[2.2.1]heptan-3-one trifluoroacetate]		0.025 to 0.15 µM
Cc1c(Cc2ccc(F)c(C(=O)N3CCN([C@H](c4ccccc4)C(F)F)C(=O)C3)c2)n[nH]c(=O)c1C [Example 123, 6-(3-{[4-(2,2-difluoro-1R-phenylethyl)-3-oxopiperazin-1-yl]carbonyl}-4-fluorobenzyl)-4,5-dimethyl-3-oxo-2,3-dihydropyridazin-1-ium trifluoroacetate]	0.05 to 0.5 µM	
Cc1c(Cc2ccc(F)c(C(=O)N3CC(=O)N(C4CCCC4)C(C)C3)c2)n[nH]c(=O)c1C (stereo not drawn) [Example 102, 6-{3-[(4-cyclopentyl-3-methyl-5-oxopiperazin-1-yl)carbonyl]-4-fluorobenzyl}-4,5-dimethyl-3-oxo-2,3-dihydropyridazin-1-ium trifluoroacetate]	< 0.05 µM	
Cc1c(Cc2ccc(F)c(C(=O)N3CC(=O)N([C@@H]4CCOC4)[C@H](C)C3)c2)n[nH]c(=O)c1C [Example 158, 6-[4-fluoro-3-({(3R)-3-methyl-5-oxo-4-[(3R)-tetrahydrofuran-3-yl]piperazin-1-yl}carbonyl)benzyl]-4,5-dimethylpyridazin-3(2H)-one]	0.05 to 0.5 µM	
Cc1c(Cc2ccc(F)c(C(=O)N3CC(=O)N(c4ccc(Cl)cc4F)[C@H](C)C3)c2)n[nH]c(=O)c1C [Example 196, 6-(3-{[(3R)-4-(4-Chloro-2-fluorophenyl)-3-methyl-5-oxopiperazin-1-yl]carbonyl}-4-fluorobenzyl)-4,5-dimethylpyridazin-3(2H)-one]	< 0.05 µM	
